Experimental data reported in patent US9987321B2, “Use of flaxseed and flaxseed derivatives for treatment of neurological disorders and viral diseases” (The Trustees of the University of Pennsylvania, priority 2012, dated 2018).

Tests used:
rat neuronal cultures = experiment: MTT viability, indirect treatment (media from SDG-treated macrophages); format: cell-based; settings: media from HIV-1 or Mock infected macrophages treated with SDG, 24 hours
Protocol: We performed a MTT (3-(4,5-dimethylthiazol-2-yl)-2,5-diphenyltetrazolium bromide) assay to measure the viability of cells through the production of insoluble formazan. […]. In these indirect studies media from HIV-1 infected or Mock infected macrophages treated with SDG was applied to neuronal cultures for 24 hours. Afterward cell viability was determined by the MTT assay which […] and is an indicator of mitochondrial activity. […] This study is a clear indicator of the non-neurotoxic effects of SDG in vitro.

[1] = system: primary rat cortical neurons; experiment: MAP2 cell-based ELISA of neuronal death and damage after ART compounds
Protocol: (§1) Relative neuronal damage as indicated by MAP2 cell-based ELISA in neurons treated with the indicated concentrations of ART compounds, ritonavir (RIT), Saquinavir (Sag), and Zidovudine (AZT). Cells were treated for 72 hours with ritonavir (10 μM or 25 μM), ritonavir (10 μM)+Saquinivir (1 μM), AZT (25 μM)+ritonavir+Saquinavir. One hour before and two hours after cART drug treatment, half of the wells of a 96 well plate of neuroglial cultures were also treated with secoisolariciresinol diglucoside (SDG) (25 μM, 50 μM, or 100 μM) where indicated. 72 hours later, a MAP2 cell-based ELISA assay was used to quantify neuronal death and damage. Untreated cultures in addition to vehicle (0.08% DMSO) treated cultures with and without SDG were used as controls. The value for untreated cultures was set to 100%, and SDG and cART treated bands are expressed as a percent change from untreated.
as §1, with “Cells” for “Relative neuronal damage as indicated by MAP2 cell-based ELISA in neurons treated with the indicated concentrations of ART compounds, ritonavir (RIT), Saquinavir (Sag), and Zidovudine (AZT). Cells”, “SDG” for “secoisolariciresinol diglucoside (SDG)”, “μM).” for “μM) where indicated.”

HIV-1 jago [2] = experiment: HIV replication in monocyte-derived macrophages (RT activity, p24); format: cell-based; settings: for viral replication as indicated by RT activity / viral replication as indicated by p24 concentrations: primary human MDMs, 9 days post-infection, ritonavir 0.1 μM, SDG 50 μM
Protocol: Primary human MDMs were infected with an HIV isolated from the CSF of a patient with confirmed HAND yielding robust reverse transcriptase activity (A) and p24 concentrations (B) after 9 days post-infection. […] Results have been confirmed in 2 distinct donors, 1 donor is shown. Three technical replicates are analyzed for RT assays (n=3, * p<0.0001).
(§2) PBMCs can be prepared from laboratory donors. PBMCs are activated with […] phytohemagglutinin for 3 days, and infected with HIV-1 jago, a strain of HIV1 isolated from the CSF of a patient with HAD. On the day of infection, cultures is treated with SDG over a range of doses (0.1, 1, 10, 100 μM SDG), vehicle, or left untreated. Viral replication is assessed by p24 ELISA at 3, 6, 9, 12 and 15 days post-infection. Cell viability of infected PBMCs can be monitored by trypan blue exclusion and p24 levels are normalized to the number of viable cells. The experiment is repeated in 3 donors. MDMs can be prepared as described previously and infected with HIV-1 jago. On the day of inoculation with HIV-1 jago cultures can be treated with 0.1, 1, 10 and 100 μM SDG, vehicle or left untreated. Viral replication is assessed on days 3, 6, 9, 12, and 15 by p24 ELISA. Cell viability is determined by trypan blue exclusion and p24 levels is normalized to the number of viable cells. The experiment is replicated in 3 donors.
To assess this effect, primary peripheral blood monocytes were harvested from healthy donors and differentiated them into macrophages in vitro. Monocytes were infected with the primary HIV isolate, jago. One day after infection, macrophages were treated with 25 μM or 50 μM SDG, the antiretroviral compound ritonavir (0.1 μM RIT), SDG and ritonavir together, the ritonavir vehicle, DMSO, or with no additional treatment. Supernatant from these macrophages was harvested 3, 6, 9, 12, and 15 days post infection and assayed for HIV reverse transcriptase activity (FIG. 5A, bar graph and FIG. 5B, Line graph).

Nrf2 = experiment: Endogenous antioxidant response expression by qRT-PCR and immunoblot; format: cell-based; settings: primary rat cortical neurons, SDG 50 μM, 2 or 48 hours
Protocol: Specifically, protein and RNA from primary rat cortical neurons treated with SDG at 50 μM or left untreated for 2 or 48 hours were analyzed for changes in expression of the endogenous antioxidant response by qRT-PCR and immunoblot.
Protein and RNA from primary rat cortical neurons treated with SDG at 50 μM or left untreated for 2 or 48 hours were analyzed for changes in expression of the endogenous antioxidant response by qRT-PCR and immunoblot.

[3] = SDG by oral gavage; cited from earlier work
[4] = DPPH free radical scavenging activity; settings: compared to ascorbic acid and alpha-tocopherol
[5] = system: nrf2-regulated protective enzymes; experiment: qRT-PCR of antioxidant enzyme gene expression in brain tissues after oral SDG; format: in vivo, mice
Protocol: Indeed, the 1.0 mg dose was associated with a near 2-fold boost of hemeoxygenase 1 expression (HO-1) and quinone oxidoreductase 1 (NQO-1) expression in brain tissues (FIG. 14, Panel B).

Nrf2/ARE = Nrf2/ARE activation in non-neuronal cell types; format: cell-based; settings: lung epithelial, endothelial and fibroblasts
CXCR4 = experiment: Western blot of CXCR4 expression on MDM; format: cell-based
Protocol: (§3) The objective of this study was to elucidate the modulatory effects of flaxseed lignans on macrophage expression of coreceptors through western blotting.
Expression of HIV coreceptor CXCR4 on macrophage derived monocytes treated with SDG was evaluated. Following the same treatment protocol, MDM were treated with SDG for 0 and 6 hours. […] 25 μM to the 25 μM SDG treatment.

cortical rat neurons = experiment: Neurotoxicity and oxidative stress (MAP2, DHE) from HIV-infected macrophage supernatants; format: cell-based
Protocol: Neurons (green) were pre-treated with 50 μM SDG 1 hour prior to exposure to HIV-infected macrophage supernatants (HIVMDM) at dilutions of 1:40 and 1:80. In the absence of SDG, there is marked reduction in MAP2 immunostaining (green) indicating neuronal damage and death (A). Labeling with dihydroethidium (red) indicates the presence of oxidative stress, which is apparent in HIVMDM treated cultures. Nuclei are labeled blue by DAPI. […] MAP2 levels are quantified in top graph (# p<0.01 compared to UT, * p<0.05 compared to respective HIV MDM). Oxidative stress (red-DHE) is quantified in bottom graph (# p<0.001, compared to HIVMDM1:40, p<0.05, compared to HIVMDM1:80, $ p<0.01 compared with UT.
Primary rat neuroglial cultures (FIG. 10, Panel A) and primary rat neuronal cultures (FIG. 10, Panel B) were treated with Supernatants from HIV-Infected macrophages (Jago) or Mock-infected macrophages (Mock) for 24 hours in the presence or absence of 25 or 50 μM SDG given 60 minutes prior to addition of the HIVMDM. Prior to fixation, cells were incubated with Dihydroethidium (DHE-red) for 30 minutes. Following fixation cells were stained for the neuronal specific marker MAP2 (green) and DAPI (blue). Representative images for each treatment are shown. DHE Fluorescence intensity was quantified from 6 fields for 3 slides per treatment, averaged, and normalized to the area of DAPI. Graphs of the average DHE staining intensity/DAPI area are plotted for each treatment group. The p values were generated using student's two-tailed t-test for equal variance. Bars on graphs represent median values of quantification by ImageJ algorithm. *P<0.05 vs Untreated (UT)-control group and Mock-control group; #P<0.05 vs Jago 1:40 treatment group. The results were obtained from at least three independent experiments.

[6] = system: brain derived neurotrophic factor (BDNF); settings: SDG by oral gavage; cited from earlier work
HIV-1 jago [7] = experiment: HIV replication in PBMCs (p24 ELISA); format: cell-based; settings: dose dependent manner; 0.1, 1, 10, 100 μM SDG
Protocol: as §2

[8] = at least 500 mg SDG/day for approximately 8 weeks; cited from earlier work
[9] = system: rat cortical neuroglial cultures; experiment: MTT viability, direct SDG treatment; format: cell-based; settings: 24 hours with SDG
Protocol: In order to assess the effects on SDG in terms of mitochondrial respiration as an indicator of viability, an MTT assay was performed with rat cortical neuroglial cultures that were treated for 24 hours with SDG.

CCR5 = experiment: Western blot of CCR5 expression on MDM; format: cell-based; settings: SDG for 0 and 6 hours, time-dependent
Protocol: as §3
Expression of HIV co-receptor CCR5 on macrophage derived monocytes treated with SDG was evaluated. Following the same treatment protocol, MDM were treated with SDG for 0 and 6 hours.

[10] = Reducing power antioxidant assay; settings: compared to SDG
Protocol: The antioxidant activity SDG was determined by assessing its reducing power, an activity related to its ability to reduce an oxidized atom or molecule and compared with that of the natural antioxidants ascorbic acid and alpha-tocopherol (Panel A).

[11] = 1.0 mg SDG oral gavage once daily for 4 days, 4 hours post final feeding
[12] = 50 μM SDG 1 hour prior to HIVMDM 1:40 and 1:80

COc1cc(C[C@@H](CO[C@@H]2O[C@H](CO)[C@@H](O)[C@H](O)[C@H]2O)[C@H](CO[C@@H]2O[C@H](CO)[C@@H](O)[C@H](O)[C@H]2O)Cc2ccc(O)c(OC)c2)ccc1O [SDG, secoisolariciresinol diglucoside]
neuronal cell viability (MTT), indirect treatment (rat neuronal cultures): no change in neuronal cell viability
attenuation of neuronal damage in response to ART compounds ([1]; 25 μM SDG 1 hour prior to ART compounds alone or in combination): significantly attenuated neuronal damage
reduction of ART-induced neuronal damage by combination therapy ([1]; SDG at 25 and 50 μM): reduced ART-induced neuronal damage
effect of SDG on ritonavir inhibition of HIV replication (reverse transcriptase activity) (HIV-1 jago [2]; 25 or 50 μM SDG with 0.1 μM ritonavir, 3-15 days post infection): did not block the ability of ritonavir to inhibit HIV replication
HIV replication (reverse transcriptase activity), SDG without ritonavir (HIV-1 jago [2]; 25 or 50 μM SDG, 3-15 days post infection): blocked HIV replication
viral replication in HIV-infected macrophages compared with ritonavir (HIV-1 jago [2]; FIG. 2): reduced viral replication to levels akin to the HIV protease inhibitor, ritonavir
HIV replication in MDMs (HIV-1 jago [2]; dose dependent manner, 0.1, 1, 10, 100 μM SDG): attenuates HIV replication
viral replication as indicated by RT activity (HIV-1 jago [2]): attenuated viral replication
viral replication as indicated by p24 concentrations (HIV-1 jago [2]): attenuated viral replication
induction of Nrf2 and its targets HO1, NQO1, GST1 (Nrf2): induced Nrf2 in neurons, as well as its prominent targets: HO1, NQO1, and GST1
chronic stress as measured by immobility time induced by tail suspension stress [3]: decreased chronic stress
DPPH free radical scavenging activity [4]: far superior antioxidant activity
hemeoxygenase 1 (HO-1) expression in brain tissues [5, 11]: ~2 fold
quinone oxidoreductase 1 (NQO-1) expression in brain tissues [5, 11]: ~2 fold
crossing of the blood-brain barrier ([5]; SDG given orally to mice): crosses the blood-brain barrier
activation of Nrf2/ARE, inducing NQO1 and HO1 (Nrf2/ARE): activates the Nrf2/ARE
HIV coreceptor CXCR4 expression on MDM, dose dependence (CXCR4; 12 hour time point, 6. 25 μM to 25 μM SDG): dose-dependent decrease
HIV coreceptor CXCR4 expression on MDM (CXCR4; between the 0 and 6 hour time points, time-dependent): significant decrease
neuron loss (MAP2 immunostaining) (cortical rat neurons; [12]): protected against neuron loss
oxidative stress by DHE (cortical rat neurons; [12]): reduced accumulation of oxidative stress
protection from HIV-stimulated macrophage-induced neurotoxicity (cortical rat neurons; 25 or 50 μM SDG 60 minutes prior to HIVMDM, 24 hours, presence or absence of glia): protects neurons
DHE staining (free radical production) in HIV-Jago-treated neurons (cortical rat neurons; presence and absence of glia): reduced DHE staining
cortex levels of brain derived neurotrophic factor (BDNF) [6]: increase
HIV replication in PBMCs (HIV-1 jago [7]): attenuates HIV replication
effect on cardiovascular risk factors in humans [8]: positive effect
neuronal cell viability (MTT), direct treatment [9]: no change in neuronal cell viability
HIV co-receptor CCR5 expression on MDM (CCR5): significant decrease

CC(C)(C)NC(=O)[C@@H]1C[C@@H]2CCCC[C@@H]2CN1C[C@@H](O)[C@H](Cc1ccccc1)NC(=O)[C@H](CC(N)=O)NC(=O)c1ccc2ccccc2n1 [saquinavir, reference compound]
neuronal damage as indicated by loss of MAP2 staining ([1]; ART compounds alone and in combinations, 72 hours): significant neuronal damage

Cc1c(C)c2c(c(C)c1O)CC[C@@](C)(CCC[C@H](C)CCC[C@H](C)CCCC(C)C)O2 [A-toc, alpha-tocopherol]
concentration needed for half-maximal response (EC50) in reducing power, relative to SDG [10]: ~3 fold

CC(C)c1nc(CN(C)C(=O)N[C@H](C(=O)N[C@@H](Cc2ccccc2)C[C@H](O)[C@H](Cc2ccccc2)NC(=O)OCc2cncs2)C(C)C)cs1 [ritonavir, reference compound]
viral replication as indicated by RT activity (HIV-1 jago [2]): attenuated viral replication
viral replication as indicated by p24 concentrations (HIV-1 jago [2]): attenuated viral replication

O=C1O[C@H]([C@@H](O)CO)C(O)=C1O [AA, ascorbic acid]
concentration needed for half-maximal response (EC50) in reducing power, relative to SDG [10]: ~3 fold
